Results: PubChem BioAssay (NCI)
Several values for one entry are separate records, joined by “and”; a condition that tells them apart may be missing. Equal entries are not always repeated.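 The compound was tested at five concentrations on cells cultured in 96-well plates, with a 48-hour exposure period. GI50: concentration for 50% inhibition of growth. At the TGI there is no net growth.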 Where a SMILES comes first, the peptide text is derived from it. [ ]: non-standard residue; d: D form. The star is where a group is joined. ξ: configuration not given here. NMeF = CN[CH](Cc1ccccc1)C(=O)O; ξNMe2Val = CC(C)C(C(=O)*)N(C)C; NMeV = CN[CH](C(=O)O)C(C)C; OtBu = CC(C)(C)O*

Tests used:
Assay in all cases: DTP human tumour cell line panel, 48 h
SF-539 CNS = tested on: SF-539 CNS
EKVX NSCLC = tested on: EKVX NSCLC
HCC-2998 colon = tested on: HCC-2998 colon
HL-60(TB) leukemia = tested on: HL-60(TB) leukemia
KM12 colon = tested on: KM12 colon
LOX IMVI melanoma = tested on: LOX IMVI melanoma
SK-MEL-2 melanoma = tested on: SK-MEL-2 melanoma
MALME-3M melanoma = tested on: MALME-3M melanoma
HS 578T breast = tested on: HS 578T breast
BT-549 breast = tested on: BT-549 breast

CC(C)C(C(=O)N(C)C(Cc1ccccc1)C(=O)N(C)C(C(=O)N(C)C(C(=O)N1CCCC1C(=O)OC(C)(C)C)C(C)C)C(C)C)N(C)C (configuration not stated) (ξNMe2Val-[NMeF][NMeV][NMeV]P-OtBu; configuration not given here)
TGI (SF-539 CNS): > 100 µM | TGI (EKVX NSCLC): > 100 µM | TGI (HCC-2998 colon): 53.3 µM | TGI (HL-60(TB) leukemia): 94.7 µM | TGI (KM12 colon): > 100 µM | TGI (LOX IMVI melanoma): 55.5 µM

CC1OC(O[C@@H]2C=C3CC[C@@H]4[C@H](CC[C@]5(C)[C@@H](c6ccc(=O)oc6)CC[C@]45O)[C@@]3(C)CC2)C(O)C(OC2OC(CO)C(O)C(O)C2O)C1O (some centres not stated)
TGI (SF-539 CNS): 0.000699 µM | GI50 (EKVX NSCLC): 0.339 nM | TGI (EKVX NSCLC): 0.00534 µM and 0.0254 µM | TGI (HCC-2998 colon): 0.0422 µM | GI50 (SK-MEL-2 melanoma): 0.866 nM | TGI (SK-MEL-2 melanoma): 0.0409 µM and 0.0257 µM | GI50 (KM12 colon): 0.437 nM | TGI (KM12 colon): 0.182 µM and 0.039 µM | GI50 (MALME-3M melanoma): 0.628 nM | TGI (MALME-3M melanoma): 0.0143 µM

Cc1cc(C)c2c(n1)S(=O)(=O)N(CCCN1CCN(c3cccc(Cl)c3)CC1)/C(=C(\O)c1ccc(Br)cc1)C2=O
TGI (SF-539 CNS): 95.6 µM | TGI (EKVX NSCLC): 57 µM | TGI (HL-60(TB) leukemia): 45.4 µM | TGI (SK-MEL-2 melanoma): 69.4 µM | TGI (HS 578T breast): > 100 µM | TGI (BT-549 breast): > 100 µM | TGI (KM12 colon): > 100 µM | TGI (MALME-3M melanoma): > 100 µM | TGI (LOX IMVI melanoma): > 100 µM

COc1cc2c[n+](C)c3c4cc(OC)c(OCc5ccccc5)cc4c(OCc4ccccc4)cc3c2cc1OC
TGI (SF-539 CNS): 11.8 µM | TGI (EKVX NSCLC): > 100 µM | TGI (HCC-2998 colon): 32.4 µM | TGI (SK-MEL-2 melanoma): 6.29 µM | TGI (BT-549 breast): 9.05 µM | TGI (KM12 colon): 23.8 µM | TGI (MALME-3M melanoma): 10.7 µM | TGI (LOX IMVI melanoma): 18 µM

Cc1ccc(S(=O)(=O)N(CCNC(=O)c2cccc(O)c2O)c2cc3c4c(c2)Oc2cccc5c2C4(C)c2c(cccc2O3)O5)cc1
TGI (SF-539 CNS): > 100 µM | TGI (EKVX NSCLC): > 100 µM | TGI (HCC-2998 colon): > 100 µM | TGI (SK-MEL-2 melanoma): > 100 µM | TGI (HS 578T breast): > 100 µM | TGI (KM12 colon): > 100 µM | TGI (MALME-3M melanoma): > 100 µM | TGI (LOX IMVI melanoma): > 100 µM

C=CCOC(=O)Cn1ccc(=O)[nH]c1=O
TGI (SF-539 CNS): > 100 µM | TGI (EKVX NSCLC): > 100 µM | TGI (HCC-2998 colon): > 100 µM | TGI (HL-60(TB) leukemia): > 100 µM | TGI (SK-MEL-2 melanoma): > 100 µM | TGI (HS 578T breast): > 100 µM | TGI (KM12 colon): > 100 µM | TGI (MALME-3M melanoma): > 100 µM | TGI (LOX IMVI melanoma): > 100 µM

COc1ccc(C2=Nc3ccccc3N=C(SC)C2)cc1
TGI (SF-539 CNS): > 100 µM | TGI (EKVX NSCLC): > 100 µM | TGI (HCC-2998 colon): 74.4 µM | TGI (HL-60(TB) leukemia): 43 µM | TGI (SK-MEL-2 melanoma): > 100 µM | TGI (KM12 colon): > 100 µM | TGI (MALME-3M melanoma): > 100 µM | TGI (LOX IMVI melanoma): 34.6 µM

C=C(C)CCC1C=[N+]([O-])OC(C)(C)C1(C)C (configuration not stated)
TGI (SF-539 CNS): > 100 µM | TGI (EKVX NSCLC): > 100 µM | TGI (HCC-2998 colon): > 100 µM | TGI (HL-60(TB) leukemia): 73.8 µM | TGI (HS 578T breast): > 100 µM | TGI (KM12 colon): > 100 µM | TGI (LOX IMVI melanoma): > 100 µM

CN1C(=O)C23CCCC2CC1(c1ccccc1)S3 (configuration not stated)
TGI (SF-539 CNS): > 100 µM | TGI (EKVX NSCLC): > 100 µM | TGI (HL-60(TB) leukemia): > 100 µM | TGI (SK-MEL-2 melanoma): > 100 µM | TGI (HS 578T breast): > 100 µM | TGI (BT-549 breast): > 100 µM | TGI (KM12 colon): > 100 µM | TGI (MALME-3M melanoma): > 100 µM | TGI (LOX IMVI melanoma): > 100 µM

Cc1ccc(NC(=O)C2C3CCC(O3)C2C(=O)O)cc1 (configuration not stated)
TGI (SF-539 CNS): > 100 µM | TGI (EKVX NSCLC): > 100 µM | TGI (HCC-2998 colon): > 100 µM | TGI (HL-60(TB) leukemia): > 60.6 µM | TGI (SK-MEL-2 melanoma): > 100 µM | TGI (KM12 colon): > 100 µM | TGI (MALME-3M melanoma): > 100 µM | TGI (LOX IMVI melanoma): > 54.8 µM

COc1ccc2[nH]c3c(c2c1)CC(=O)N1CCC[C@H](C1)CC31OCCCO1
TGI (EKVX NSCLC): > 100 µM | TGI (HCC-2998 colon): > 100 µM | TGI (SK-MEL-2 melanoma): > 100 µM | TGI (HS 578T breast): > 100 µM | TGI (BT-549 breast): > 100 µM | TGI (KM12 colon): > 100 µM | TGI (MALME-3M melanoma): > 100 µM

O=C1c2cccnc2-c2nccc3c2c1nc1ccccc13
TGI (SF-539 CNS): 0.544 µM | TGI (EKVX NSCLC): 3.21 µM | TGI (SK-MEL-2 melanoma): 0.525 µM | TGI (HS 578T breast): 2.26 µM | TGI (BT-549 breast): 0.618 µM | TGI (KM12 colon): 1.03 µM | TGI (MALME-3M melanoma): 0.603 µM | TGI (LOX IMVI melanoma): 0.207 µM

O=c1/c(=C/c2ccccn2)sc2nc3cc4c(cc3n12)OCCO4
TGI (HCC-2998 colon): > 100 µM | TGI (SK-MEL-2 melanoma): > 100 µM | TGI (HS 578T breast): > 100 µM | TGI (BT-549 breast): > 100 µM | TGI (KM12 colon): > 100 µM | TGI (MALME-3M melanoma): > 100 µM | TGI (LOX IMVI melanoma): > 100 µM

CC(=O)OCC1OC(N=[N+]=[N-])C(OC(C)=O)C(OC(C)=O)C1OC1OC(COC(C)=O)C(OC(C)=O)C(OC(C)=O)C1OC(C)=O (configuration not stated)
TGI (SF-539 CNS): > 100 µM | TGI (EKVX NSCLC): > 100 µM | TGI (HCC-2998 colon): > 100 µM | TGI (HL-60(TB) leukemia): > 100 µM | TGI (SK-MEL-2 melanoma): > 100 µM | TGI (KM12 colon): > 100 µM | TGI (MALME-3M melanoma): > 100 µM | TGI (LOX IMVI melanoma): > 100 µM

CSc1ncc2c(n1)-c1ccccc1OC2
TGI (SF-539 CNS): > 100 µM | TGI (EKVX NSCLC): > 100 µM | TGI (HL-60(TB) leukemia): > 100 µM | TGI (SK-MEL-2 melanoma): > 100 µM | TGI (HS 578T breast): > 100 µM | TGI (BT-549 breast): > 100 µM | TGI (KM12 colon): > 100 µM | TGI (LOX IMVI melanoma): > 100 µM

COC(=O)c1c(O)ccc2c1c1c(n2Cc2cccc(C)c2)C(=O)c2ccccc2C1
TGI (SF-539 CNS): 61.4 µM | TGI (EKVX NSCLC): 10.4 µM | TGI (HL-60(TB) leukemia): > 75 µM | TGI (SK-MEL-2 melanoma): > 75 µM | TGI (HS 578T breast): > 75 µM | TGI (BT-549 breast): > 75 µM | TGI (MALME-3M melanoma): 69.5 µM | TGI (LOX IMVI melanoma): 67.1 µM

O=c1[nH]c2ccc(CC(=S)N3CCOCC3)cc2o1
TGI (SF-539 CNS): > 100 µM | TGI (EKVX NSCLC): > 100 µM | TGI (HL-60(TB) leukemia): > 100 µM | TGI (SK-MEL-2 melanoma): > 100 µM | TGI (HS 578T breast): > 100 µM | TGI (BT-549 breast): > 100 µM | TGI (KM12 colon): > 100 µM | TGI (MALME-3M melanoma): > 100 µM | TGI (LOX IMVI melanoma): > 100 µM

Cc1[nH]c2nccn2c(=O)c1CCO
TGI (SF-539 CNS): > 10 µM | TGI (EKVX NSCLC): > 10 µM | TGI (HL-60(TB) leukemia): > 10 µM | TGI (HS 578T breast): > 10 µM | TGI (BT-549 breast): > 10 µM | TGI (KM12 colon): > 10 µM | TGI (MALME-3M melanoma): > 10 µM | TGI (LOX IMVI melanoma): > 10 µM

CCOC(=O)N1CCC2(CC1)C[C@@](C(C)=O)(c1ccccc1)C(C)O2 (some centres not stated)
TGI (SF-539 CNS): > 100 µM | TGI (EKVX NSCLC): > 100 µM | TGI (HCC-2998 colon): > 100 µM | TGI (HL-60(TB) leukemia): > 100 µM | TGI (SK-MEL-2 melanoma): > 100 µM | TGI (HS 578T breast): > 100 µM | TGI (KM12 colon): > 100 µM | TGI (MALME-3M melanoma): > 100 µM | TGI (LOX IMVI melanoma): > 100 µM

Cc1ccnc(Nc2[nH]c(C(=O)c3ccc(Cl)cc3)c(N)c2C(=S)Nc2ccccc2)c1
TGI (SF-539 CNS): 26.6 µM | TGI (EKVX NSCLC): 44.6 µM | TGI (HCC-2998 colon): 29.7 µM | TGI (HL-60(TB) leukemia): 64.6 µM | TGI (SK-MEL-2 melanoma): 21.5 µM | TGI (BT-549 breast): 30.5 µM | TGI (KM12 colon): 32.4 µM | TGI (MALME-3M melanoma): 29.6 µM | TGI (LOX IMVI melanoma): 28.3 µM

O=C1Nc2ccc(Cl)c(I)c2C1=O
TGI (EKVX NSCLC): 20.8 µM | TGI (HCC-2998 colon): 27.7 µM | TGI (HL-60(TB) leukemia): 41.3 µM | TGI (SK-MEL-2 melanoma): 34.2 µM | TGI (KM12 colon): 76.3 µM | TGI (MALME-3M melanoma): 34.8 µM | TGI (LOX IMVI melanoma): 35.1 µM

CC#COS(=O)(=O)c1ccc(C)cc1
TGI (SF-539 CNS): > 100 µM | TGI (EKVX NSCLC): > 100 µM | TGI (HCC-2998 colon): > 100 µM | TGI (HL-60(TB) leukemia): 59.8 µM | TGI (SK-MEL-2 melanoma): > 100 µM | TGI (KM12 colon): > 100 µM | TGI (MALME-3M melanoma): > 100 µM | TGI (LOX IMVI melanoma): > 100 µM

O=S(=O)(/N=C(\NO)Nc1ccc(Cl)cc1)c1cc2ccccc2s1
TGI (SF-539 CNS): 40.2 µM | TGI (EKVX NSCLC): 26 µM | TGI (HL-60(TB) leukemia): 45.3 µM | TGI (SK-MEL-2 melanoma): 30.4 µM | TGI (HS 578T breast): 37.5 µM | TGI (BT-549 breast): 31.6 µM | TGI (KM12 colon): 57.2 µM | TGI (MALME-3M melanoma): 29.6 µM | TGI (LOX IMVI melanoma): 33.5 µM
